Calls of active or inactive are those of the source. The rule behind the calls is not given here.
Tested on: CCRIS mutagenicity, Ames/micronucleus/aberration tests
Assay: CCRIS mutagenicity studies
[1] = Test System: AMES SALMONELLA TYPHIMURIUM, Strain/Indicator: TA98, Metabolic Activation: NONE, Method: STANDARD PLATE
[2] = Test System: AMES SALMONELLA TYPHIMURIUM, Strain/Indicator: TA98, Metabolic Activation: RAT, LIVER, S-9, AROCLOR 1254, Method: STANDARD PLATE
[3] = Test System: AMES SALMONELLA TYPHIMURIUM, Strain/Indicator: TA100, Metabolic Activation: NONE, Method: STANDARD PLATE
[4] = Test System: AMES SALMONELLA TYPHIMURIUM, Strain/Indicator: TA100, Metabolic Activation: RAT, LIVER, S-9, AROCLOR 1254, Method: STANDARD PLATE

Measured: mutagenic call

Oc1c(Cl)ccc(Cl)c1Cl
inactive: Test System: AMES SALMONELLA TYPHIMURIUM, Strain/Indicator: TA97, Metabolic Activation: HAMSTER, LIVER, S-9, AROCLOR 1254 (10%), Method: PREINCUBATION inactive; negative | Test System: AMES SALMONELLA TYPHIMURIUM, Strain/Indicator: TA97, Metabolic Activation: HAMSTER, LIVER, S-9, AROCLOR 1254 (30%), Method: PREINCUBATION inactive; negative | Test System: AMES SALMONELLA TYPHIMURIUM, Strain/Indicator: TA97, Metabolic Activation: NONE, Method: PREINCUBATION inactive; negative | Test System: AMES SALMONELLA TYPHIMURIUM, Strain/Indicator: TA97, Metabolic Activation: NONE, Method: STANDARD PLATE inactive; negative | Test System: AMES SALMONELLA TYPHIMURIUM, Strain/Indicator: TA97, Metabolic Activation: RAT, LIVER, S-9, AROCLOR 1254 (10%), Method: PREINCUBATION inactive; negative | Test System: AMES SALMONELLA TYPHIMURIUM, Strain/Indicator: TA97, Metabolic Activation: RAT, LIVER, S-9, AROCLOR 1254 (30%), Method: PREINCUBATION inactive; negative | Test System: AMES SALMONELLA TYPHIMURIUM, Strain/Indicator: TA97, Metabolic Activation: RAT, LIVER, S-9, AROCLOR 1254, Method: STANDARD PLATE inactive; negative | Test System: AMES SALMONELLA TYPHIMURIUM, Strain/Indicator: TA98, Metabolic Activation: HAMSTER, LIVER, S-9, AROCLOR 1254 (10%), Method: PREINCUBATION inactive; negative | Test System: AMES SALMONELLA TYPHIMURIUM, Strain/Indicator: TA98, Metabolic Activation: HAMSTER, LIVER, S-9, AROCLOR 1254 (30%), Method: PREINCUBATION inactive; negative | Test System: AMES SALMONELLA TYPHIMURIUM, Strain/Indicator: TA98, Metabolic Activation: NONE, Method: PREINCUBATION inactive; negative | [1] inactive; negative | Test System: AMES SALMONELLA TYPHIMURIUM, Strain/Indicator: TA98, Metabolic Activation: RAT, LIVER, S-9, AROCLOR 1254 (10%), Method: PREINCUBATION inactive; negative | Test System: AMES SALMONELLA TYPHIMURIUM, Strain/Indicator: TA98, Metabolic Activation: RAT, LIVER, S-9, AROCLOR 1254 (30%), Method: PREINCUBATION inactive; negative | Test System: AMES SALMONELLA TYPHIMURIUM, Strain/Indicator: TA100, Metabolic Activation: HAMSTER, LIVER, S-9, AROCLOR 1254 (10%), Method: PREINCUBATION inactive; negative | Test System: AMES SALMONELLA TYPHIMURIUM, Strain/Indicator: TA100, Metabolic Activation: HAMSTER, LIVER, S-9, AROCLOR 1254 (30%), Method: PREINCUBATION inactive; negative | Test System: AMES SALMONELLA TYPHIMURIUM, Strain/Indicator: TA100, Metabolic Activation: NONE, Method: PREINCUBATION inactive; negative | [3] inactive; negative | Test System: AMES SALMONELLA TYPHIMURIUM, Strain/Indicator: TA100, Metabolic Activation: RAT, LIVER, S-9, AROCLOR 1254 (10%), Method: PREINCUBATION inactive; negative | Test System: AMES SALMONELLA TYPHIMURIUM, Strain/Indicator: TA100, Metabolic Activation: RAT, LIVER, S-9, AROCLOR 1254 (30%), Method: PREINCUBATION inactive; negative | [4] inactive; negative | Test System: AMES SALMONELLA TYPHIMURIUM, Strain/Indicator: TA104, Metabolic Activation: NONE, Method: STANDARD PLATE inactive; negative | Test System: AMES SALMONELLA TYPHIMURIUM, Strain/Indicator: TA104, Metabolic Activation: RAT, LIVER, S-9, AROCLOR 1254, Method: STANDARD PLATE inactive; negative | Test System: AMES SALMONELLA TYPHIMURIUM, Strain/Indicator: TA1535, Metabolic Activation: HAMSTER, LIVER, S-9, AROCLOR 1254 (10%), Method: PREINCUBATION inactive; negative | Test System: AMES SALMONELLA TYPHIMURIUM, Strain/Indicator: TA1535, Metabolic Activation: HAMSTER, LIVER, S-9, AROCLOR 1254 (30%), Method: PREINCUBATION inactive; negative | Test System: AMES SALMONELLA TYPHIMURIUM, Strain/Indicator: TA1535, Metabolic Activation: NONE, Method: PREINCUBATION inactive; negative | Test System: AMES SALMONELLA TYPHIMURIUM, Strain/Indicator: TA1535, Metabolic Activation: RAT, LIVER, S-9, AROCLOR 1254 (10%), Method: PREINCUBATION inactive; negative | Test System: AMES SALMONELLA TYPHIMURIUM, Strain/Indicator: TA1535, Metabolic Activation: RAT, LIVER, S-9, AROCLOR 1254 (30%), Method: PREINCUBATION inactive; negative | Test System: AMES SALMONELLA TYPHIMURIUM, Strain/Indicator: TA1537, Metabolic Activation: HAMSTER, LIVER, S-9, AROCLOR 1254 (30%), Method: PREINCUBATION inactive; negative | Test System: AMES SALMONELLA TYPHIMURIUM, Strain/Indicator: TA1537, Metabolic Activation: NONE, Method: PREINCUBATION inactive; negative | Test System: AMES SALMONELLA TYPHIMURIUM, Strain/Indicator: TA1537, Metabolic Activation: RAT, LIVER, S-9, AROCLOR 1254 (30%), Method: PREINCUBATION inactive; negative
active: End Point: IN VITRO CHROMOSOMAL ABERRATIONS, Test System: CHINESE HAMSTER LUNG CELLS (CHL), Metabolic Activation: RAT, LIVER, S-9, KC-400 active; positive (structural changes) | End Point: IN VITRO CHROMOSOMAL ABERRATIONS, Test System: CHINESE HAMSTER OVARY CELLS (CHO), Metabolic Activation: NONE active; positive (structural changes) | End Point: IN VITRO CHROMOSOMAL ABERRATIONS, Test System: CHINESE HAMSTER OVARY CELLS (CHO), Metabolic Activation: RAT, LIVER, S-9, AROCLOR 1254 active; positive (structural changes) | [2] active; positive

CC[C@H](C)[C@@H]([C@@H](CC(=O)N1CCC[C@H]1[C@H](OC)[C@@H](C)C(=O)N[C@@H](Cc1ccccc1)c1nccs1)OC)N(C)C(=O)[C@@H](NC(=O)[C@H](C(C)C)N(C)C)C(C)C
active: Test System: MOUSE LYMPHOMA, Strain/Indicator: L5178Y (TK+/TK-), Metabolic Activation: NONE, Method: SUSPENSION/PLATE active; positive. reevaluation of results: inconclusive
inactive: Test System: AMES SALMONELLA TYPHIMURIUM, Strain/Indicator: TA98, Metabolic Activation: HAMSTER, LIVER, S-9, AROCLOR 1254, Method: STANDARD PLATE inactive; negative | [1] inactive; negative | [2] inactive; negative | Test System: AMES SALMONELLA TYPHIMURIUM, Strain/Indicator: TA100, Metabolic Activation: HAMSTER, LIVER, S-9, AROCLOR 1254, Method: STANDARD PLATE inactive; negative | [3] inactive; negative | [4] inactive; negative | Test System: AMES SALMONELLA TYPHIMURIUM, Strain/Indicator: TA1535, Metabolic Activation: HAMSTER, LIVER, S-9, AROCLOR 1254, Method: STANDARD PLATE inactive; negative | Test System: AMES SALMONELLA TYPHIMURIUM, Strain/Indicator: TA1535, Metabolic Activation: NONE, Method: STANDARD PLATE inactive; negative | Test System: AMES SALMONELLA TYPHIMURIUM, Strain/Indicator: TA1535, Metabolic Activation: RAT, LIVER, S-9, AROCLOR 1254, Method: STANDARD PLATE inactive; negative | Test System: AMES SALMONELLA TYPHIMURIUM, Strain/Indicator: TA1537, Metabolic Activation: HAMSTER, LIVER, S-9, AROCLOR 1254, Method: STANDARD PLATE inactive; negative | Test System: AMES SALMONELLA TYPHIMURIUM, Strain/Indicator: TA1537, Metabolic Activation: NONE, Method: STANDARD PLATE inactive; negative | Test System: AMES SALMONELLA TYPHIMURIUM, Strain/Indicator: TA1537, Metabolic Activation: RAT, LIVER, S-9, AROCLOR 1254, Method: STANDARD PLATE inactive; negative | Test System: AMES SALMONELLA TYPHIMURIUM, Strain/Indicator: TA1538, Metabolic Activation: HAMSTER, LIVER, S-9, AROCLOR 1254, Method: STANDARD PLATE inactive; negative | Test System: AMES SALMONELLA TYPHIMURIUM, Strain/Indicator: TA1538, Metabolic Activation: NONE, Method: STANDARD PLATE inactive; negative | Test System: AMES SALMONELLA TYPHIMURIUM, Strain/Indicator: TA1538, Metabolic Activation: RAT, LIVER, S-9, AROCLOR 1254, Method: STANDARD PLATE inactive; negative | Test System: MOUSE LYMPHOMA, Strain/Indicator: L5178Y (TK+/TK-), Metabolic Activation: RAT, LIVER, S-9, AROCLOR 1254, Method: SUSPENSION/PLATE inactive; negative. reevaluation of results: negative
